Measured values taken from US9238034B2, “FN14 antagonists and therapeutic uses thereof” (THE TRANSLATIONAL GENOMICS RESEARCH INSTITUTE, priority 2013, dated 2016).
Read-outs that look alike come from different tables or passages of the source.

Biological target: T1, Fn14-TWEAK binding (Homo sapiens, UniProt Q9NP84)
T1 construct: the human Fc fragment-tagged Fn14 extracellular domain (R&D Systems) was captured; purchased R&D Systems (Fn14-Fc); Peprotech (recombinant TWEAK)
T1 sequence (Q9NP84 28-80 limits assumed): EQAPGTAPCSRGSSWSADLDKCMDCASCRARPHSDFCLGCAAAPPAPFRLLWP
Assay: Double sandwich ELISA small molecule screening of TWEAK binding to captured Fn14-Fc
Procedure: Double Sandwich ELISA. sTWEAK and sTWEAK variant proteins were synthesized as described above. The expression level of each IVTT synthesized sTWEAK protein was analyzed by western blot analysis and used in approximately equal amounts in the ELISA. To assay the binding of wild type sTWEAK and sTWEAK variants to Fn14, the human Fc fragment-tagged Fn14 extracellular domain (R&D Systems) was captured in an Immuno 96-microwell white plate by adding 100 μL of 0.025 μg/mL Fn14-Fc to wells coated with goat anti-human Fcγ fragment specific monoclonal antibody. After capture, the wells were washed 3× with Dulbecco's Phosphate Buffered Saline (DPBS) containing 0.05% Tween-20. Unbound sites were blocked by addition of 100 μL of blocking solution containing 0.05% Tween-20, 1% BSA, and 3% normal goat serum (NGS) in DPBS for 1 hr at room temperature. 0.01 μL of sTWEAK or sTWEAK variant made with the human IVTT kit or 2 μL of sTWEAK or sTWEAK variant made with the rabbit IVTT kit was diluted in 100 μL of sample diluent (DPBS+1% BSA+0.005% Tween-20) and then added to the wells for 2 hr followed by addition of 100 μL of 50 ng/mL biotinylated TWEAK detection antibody (R&D Systems) in sample diluent. Following incubation for additional 2 hr at room temperature, wells were washed 3× with DPBS containing 0.05% Tween-20 and bound biotinylated TWEAK antibody was detected by incubation with an HRP-conjugated streptavidin. The total luminescent signal was obtained using Femto ELISA kit (Pierce Biochemical) and compared to the standard curve signal obtained from the binding of 0-4000 pg/mL recombinant TWEAK (Peprotech inc) to Fn14-Fc. Using 5-parameter logistic curve fitting for standard curve analysis (Sigmaplot 11.0, SyStat Software Inc.), binding of sTWEAK or TWEAK variant to Fn14-Fc was determined. The data represents that observed for at least four replicate assays.
The small molecule screening was performed using the ELISA assay described above with minor modifications. Briefly, after capturing Fn14-Fc in the microwell plate, 80 μl of drug solution in sample diluent was added to desired wells and incubated for 2 hrs at room temperature. Subsequently, 20 μL of 2500 pg/mL (5×) TWEAK was added to each well to achieve final TWEAK concentration of 500 pg/mL and incubated for additional 2 hr at room temperature. Bound TWEAK was detected as described in the protocol above. All small molecule inhibitors were screened at 25 μM final concentration (final DMSO concentration of 0.125%) in duplicate. Cyclohexamide, a non-specific small molecule, at 25 μM concentration was used as negative control. The anti-Fn14 antibody ITEM-4, added at 2.5 μg/mL, was used as a positive control for complete blockade of TWEAK binding. Reduction in TWEAK binding due to compound addition or controls was calculated by using standard curve (Separate standard curve was obtained for every screening plate).

[1] = Table 4, second screening iteration, 25 μM, average of duplicate, read-out: % Reduction in TWEAK Binding, Average
[2] = Table 4, second screening iteration, 25 μM, replicate 1, read-out: % Reduction in TWEAK Binding, Data 1
[3] = Table 4, second screening iteration, 25 μM, replicate 2, read-out: % Reduction in TWEAK Binding, Data 2
[4] = Table 5, 25 μM, average of duplicate, read-out: % Reduction in TWEAK Binding, Average
[5] = Table 5, 25 μM, replicate 1, read-out: % Reduction in TWEAK Binding, Data 1
[6] = Table 5, 25 μM, replicate 2, read-out: % Reduction in TWEAK Binding, Data 2
[7] = Table 3, first round of screening, 25 μM, average of duplicate, read-out: % Reduction in TWEAK Binding, Average
[8] = Table 3, first round of screening, 25 μM, replicate 1, read-out: % Reduction in TWEAK Binding, Data 1
[9] = Table 3, first round of screening, 25 μM, replicate 2, read-out: % Reduction in TWEAK Binding, Data 2
[10] = first round of screening, 25 μM, read-out: average inhibition in TWEAK-Fn14 binding
[11] = first round of screening, 25 μM, read-out: single point activities / individual data points, inhibition of the Fn14-TWEAK interaction

Row | Compound | inhibition at 25 µM [1] [%] | inhibition at 25 µM [2] [%] | inhibition at 25 µM [3] [%] | inhibition at 25 µM [4] [%] | inhibition at 25 µM [5] [%] | inhibition at 25 µM [6] [%] | inhibition at 25 µM [7] [%] | inhibition at 25 µM [8] [%] | inhibition at 25 µM [9] [%] | inhibition at 25 µM [10] [%] | inhibition at 25 µM [11] [%] | % Reduction in TWEAK Binding, Average (Table 4, second screening iteration, 25 μM, average of duplicate) [%] | % Reduction in TWEAK Binding, Data 2 (Table 4, second screening iteration, 25 μM, replicate 2) [%]
1 | CCCSc1nnc(-c2ccccc2NC(=O)CC)c(O)n1 [Compound 5511-0142] | 10.5 | 7.2 | 13.8 | 10.5 | 7.2 | 13.8 | – | – | – | – | – | – | –
2 | O=C(c1csc(S(=O)(=O)NCc2ccccn2)c1)N1CCCCCC1 | – | – | – | 12 | 15.3 | 8.76 | – | – | – | – | – | – | –
3 | O=C(c1cn(-c2cccc(Cl)c2)nn1)N1CCCC1 [Compound L524-0322] | 11.6 | 17 | 6.27 | 11.6 | 17 | 6.27 | – | – | – | – | – | – | –
4 | O=C(CSc1nnc(-c2ccccc2)c(-c2ccccc2)n1)Nc1ccccc1 [Compound G003-0114] | 13 | 14.7 | 11.3 | 13 | 14.7 | 11.3 | – | – | – | – | – | – | –
5 | O=C(CSc1nc2c(cnn2-c2ccccc2)c(=O)[nH]1)NCc1ccc2c(c1)OCO2 [Compound G873-0032] | – | – | – | 20.4 | 26.3 | 14.5 | 20.4 | 26.3 | 14.5 | > 15 | – | – | –
6 | O=C(CSc1ccccc1)Nc1cccc2nsnc12 [Compound F281-0079] | 14.6 | 15.5 | 13.7 | 14.6 | 15.5 | 13.7 | – | – | – | – | – | – | –
7 | O=C(CSc1nc2c(cnn2-c2ccccc2)c(=O)[nH]1)NCc1ccc(F)cc1 [Compound G873-0031] | – | – | – | 14.2 | 20.3 | 8.06 | 14.2 | 20.3 | 8.06 | – | > 15 | – | –
8 | Cc1cccc(NC(=O)CS(=O)(=O)c2ccccc2)c1 [Compound C200-5958] | – | – | – | – | – | – | – | – | – | – | – | −5.743 | −5.743
9 | CC(C)NC(=O)C(=O)NCc1n[nH]c(=O)c2ccccc12 [Compound F044-0043] | – | – | – | 13.7 | 12.8 | 14.7 | 13.7 | 12.8 | 14.7 | < 15 | – | – | –
10 | O=C(NCc1ccccc1)C(=O)NCc1n[nH]c(=O)c2ccccc12 [Compound F044-0075] | – | – | – | 13 | 13.2 | 12.8 | 13 | 13.2 | 12.8 | < 15 | – | – | –
11 | CCC(=O)Nc1ccccc1-c1nnc(SC(CC)C(=O)Nc2cc(OC)cc(OC)c2)[nH]c1=O (stereo not shown) [Compound F151-0435] | – | – | – | 15.5 | 18.9 | 12.2 | 15.5 | 18.9 | 12.2 | > 15 | – | – | –
12 | O=C(CSc1cccc2cccnc12)Nc1ccc2ccccc2c1 [Compound 4084-0026] | 11.1 | 15.3 | 6.85 | 11.1 | 15.3 | 6.85 | – | – | – | – | – | – | –
13 | O=C1CN(C(=O)CSc2ccccc2)c2ccccc2N1 [Compound D479-0271] | 19.7 | 20.9 | 18.5 | 19.7 | 20.9 | 18.5 | – | – | – | – | – | – | –
14 | CCC(=O)Nc1ccccc1-c1nnc(SCC(=O)Nc2cc(C)ccc2C)[nH]c1=O [Compound F151-0458] | – | – | – | 11.1 | 10.7 | 11.5 | 11.1 | 10.7 | 11.5 | – | – | – | –
15 | Cc1cc(C)n(CC(=O)NCCc2c[nH]c3ccccc23)n1 [Compound D715-0890] | – | – | – | 15.3 | 17.1 | 13.6 | 15.3 | 17.1 | 13.6 | > 15 | – | – | –

Other lines, results leading:

Row | inhibition at 25 µM [1] [%] | inhibition at 25 µM [2] [%] | inhibition at 25 µM [3] [%] | inhibition at 25 µM [4] [%] | inhibition at 25 µM [5] [%] | inhibition at 25 µM [6] [%] | inhibition at 25 µM [7] [%] | inhibition at 25 µM [8] [%] | inhibition at 25 µM [9] [%] | inhibition at 25 µM [10] [%] | inhibition at 25 µM [11] [%] | % Reduction in TWEAK Binding, Average (Table 4, second screening iteration, 25 μM, average of duplicate) [%] | % Reduction in TWEAK Binding, Data 2 (Table 4, second screening iteration, 25 μM, replicate 2) [%] | Compound
16 | – | – | – | 11.7 | 9.77 | 13.6 | 11.7 | 9.77 | 13.6 | – | – | – | – | COC(=O)[C@H]1Cc2c([nH]c3ccccc23)CN1 [Compound D715-0140]
17 | – | – | – | 12 | 9.99 | 14.1 | 12 | 9.99 | 14.1 | – | – | – | – | CCOCCCNC(=O)C(=O)NCc1n[nH]c(=O)c2ccccc12 [Compound F044-0058]
18 | – | – | – | 11.5 | 12.6 | 10.4 | 11.5 | 12.6 | 10.4 | – | – | – | – | O=C(NCc1ccc(F)cc1)C(=O)NCc1n[nH]c(=O)c2ccccc12 [Compound F044-0077]
19 | – | – | – | 22 | 28.1 | 15.9 | – | – | – | – | – | – | – | O=C(NCc1ccc(F)cc1)C1CCCN(c2nc3c(-c4ccccc4)csc3c(=O)[nH]2)C1 (stereo not shown)
20 | 24 | 23.8 | 24.3 | 24 | 23.8 | 24.3 | – | – | – | – | – | – | – | COc1cccc(NC(=O)CSc2nnc(-c3ccc(Cl)cc3)c(-c3ccc(Cl)cc3)n2)c1 [Compound K216-0957]
21 | 10.5 | 10.5 | – | 10.5 | 10.5 | – | – | – | – | – | – | – | – | COc1cccc(NC(=O)CSc2nnc(-c3ccccc3)c(-c3ccccc3)n2)c1 [Compound K784-2273]
22 | 19.5 | 17.8 | 21.2 | 19.5 | 17.8 | 21.2 | – | – | – | – | – | – | – | Nc1ccccc1SCC(=O)Nc1cccc2nsnc12 [Compound 8415-09495]
23 | 15.7 | 14.7 | 16.7 | 15.7 | 14.7 | 16.7 | – | – | – | – | – | – | – | O=C(NC1CC1)c1cn(-c2cccc(Cl)c2)nn1 [Compound L524-0361]
24 | – | – | – | 11.8 | 16.2 | 7.41 | 11.8 | 16.2 | 7.41 | – | – | – | – | NC(=O)C1CCCN(c2nc3c(-c4ccccc4)csc3c(=O)[nH]2)C1 (stereo not shown) [Compound Z250-1266]
25 | – | – | – | 11 | 11.1 | 10.8 | 11 | 11.1 | 10.8 | – | – | – | – | O=C(NCc1cccnc1)C(=O)NCc1n[nH]c(=O)c2ccccc12 [Compound F044-0083]
26 | – | – | – | 10.3 | 0.98 | 19.6 | 10.3 | 0.98 | 19.6 | – | > 15 | – | – | COc1ccc(C2N[C@H](C(=O)O)Cc3c2[nH]c2ccccc32)cc1O (stereo partly shown) [Compound D715-0114]
